Species on record: Rattus norvegicus
Assay: DrugMatrix - Regimen: Daily Repeat
Assay type: toxicity, organism-based, Sprague-Dawley
Set-up: regimen Daily Repeat, gender Male, age 6-8 weeks
Settings: in vivo, po, route oral GAVAGE, vehicle 100 % WATER; for ABSOLUTE BASOPHIL / ABSOLUTE EOSINOPHIL / ABSOLUTE LYMPHOCYTE / ABSOLUTE MONOCYTE / ABSOLUTE SEGMENTED NEUTROPHIL / BASOPHIL / EOSINOPHIL / ERYTHROCYTE COUNT / HEMATOCRIT / HEMOGLOBIN / LEUKOCYTE COUNT / LYMPHOCYTE / MEAN CORPUSCULAR HEMOGLOBIN / MEAN CORPUSCULAR HEMOGLOBIN CONCENTRATION / MEAN CORPUSCULAR VOLUME / MONOCYTE / NEUTROPHIL / NUCLEATED RED BLOOD CELLS / PLATELET COUNT: tissue Blood; for ALANINE AMINOTRANSFERASE / ALBUMIN / ALKALINE PHOSPHATASE / ASPARTATE AMINOTRANSFERASE / BLOOD UREA NITROGEN / CARBON DIOXIDE / CHLORIDE / CHOLESTEROL / CREATINE PHOSPHOKINASE / CREATININE / GLUCOSE / LACTATE DEHYDROGENASE / LIPASE / PHOSPHORUS / POTASSIUM / SODIUM / TOTAL BILIRUBIN / TOTAL PROTEIN / URIC ACID: tissue Plasma
[1] = 11 mg/kg, 120 h, dose level Low, time 5 day
[2] = 40 mg/kg, 72 h, dose level High, time 3 day
[3] = 40 mg/kg, 120 h, dose level High, time 5 day

## CN(C)C(=O)Oc1cccc([N+](C)(C)C)c1.[Br-] [NEOSTIGMINE BROMIDE]
[1]
  ABSOLUTE BASOPHIL: 0 CELLS/uL
  ABSOLUTE EOSINOPHIL: 28.67 CELLS/uL
  ABSOLUTE LYMPHOCYTE: 4930.67 CELLS/uL
  ABSOLUTE MONOCYTE: 109.33 CELLS/uL
  ABSOLUTE SEGMENTED NEUTROPHIL: 798 CELLS/uL
  BASOPHIL: 0%
  EOSINOPHIL: 0.33%
  ERYTHROCYTE COUNT: 5.49 x10E6/uL
  HEMATOCRIT: 34.3%
  HEMOGLOBIN: 13.23 G/DL
  LEUKOCYTE COUNT: 5.87 x10E3/uL
  LYMPHOCYTE: 83%
  MEAN CORPUSCULAR HEMOGLOBIN: 24.1 pg
  MEAN CORPUSCULAR HEMOGLOBIN CONCENTRATION: 38.57 G/DL
  MEAN CORPUSCULAR VOLUME: 62.5 fL
  MONOCYTE: 1.67%
  NEUTROPHIL: 15%
  NUCLEATED RED BLOOD CELLS: 0 /100WBC
  PLATELET COUNT: 970 x10E3/uL
  ALANINE AMINOTRANSFERASE: 54 u/L
  ALBUMIN: 4 G/DL
  ALKALINE PHOSPHATASE: 382.33 u/L
  ASPARTATE AMINOTRANSFERASE: 83 u/L
  BLOOD UREA NITROGEN: 14 mg/dL
  CARBON DIOXIDE: 32.33 mmol/L
  CHLORIDE: 99.33 MEQ/L
  CHOLESTEROL: 67.33 mg/dL
  CREATINE PHOSPHOKINASE: 225.33 u/L
  CREATININE: 0.14 mg/dL
  GLUCOSE: 155.33 mg/dL
  LACTATE DEHYDROGENASE: 116 u/L
  LIPASE: 9.33 u/L
  PHOSPHORUS: 11.53 mg/dL
  POTASSIUM: 5.88 MEQ/L
  SODIUM: 144.8 MEQ/L
  TOTAL BILIRUBIN: 0.17 mg/dL
  TOTAL PROTEIN: 5.8 G/DL
  URIC ACID: 0.8 mg/dL
[2]
  ABSOLUTE BASOPHIL: 0 CELLS/uL
  ABSOLUTE EOSINOPHIL: 29.33 CELLS/uL
  ABSOLUTE LYMPHOCYTE: 8073 CELLS/uL
  ABSOLUTE MONOCYTE: 28.67 CELLS/uL
  ABSOLUTE SEGMENTED NEUTROPHIL: 702.33 CELLS/uL
  BASOPHIL: 0%
  EOSINOPHIL: 0.33%
  ERYTHROCYTE COUNT: 5.28 x10E6/uL
  HEMATOCRIT: 32.2%
  HEMOGLOBIN: 12.53 G/DL
  LEUKOCYTE COUNT: 8.83 x10E3/uL
  LYMPHOCYTE: 91.33%
  MEAN CORPUSCULAR HEMOGLOBIN: 23.7 pg
  MEAN CORPUSCULAR HEMOGLOBIN CONCENTRATION: 38.93 G/DL
  MEAN CORPUSCULAR VOLUME: 60.93 fL
  MONOCYTE: 0.33%
  NEUTROPHIL: 8%
  NUCLEATED RED BLOOD CELLS: 0 /100WBC
  PLATELET COUNT: 857.33 x10E3/uL
  ALANINE AMINOTRANSFERASE: 53.67 u/L
  ALBUMIN: 3.97 G/DL
  ALKALINE PHOSPHATASE: 316.33 u/L
  ASPARTATE AMINOTRANSFERASE: 90.33 u/L
  BLOOD UREA NITROGEN: 13.33 mg/dL
  CARBON DIOXIDE: 31.67 mmol/L
  CHLORIDE: 100.67 MEQ/L
  CHOLESTEROL: 85 mg/dL
  CREATINE PHOSPHOKINASE: 289 u/L
  CREATININE: 0.15 mg/dL
  GLUCOSE: 135.33 mg/dL
  LACTATE DEHYDROGENASE: 137.33 u/L
  LIPASE: 9 u/L
  PHOSPHORUS: 11.43 mg/dL
  POTASSIUM: 6.3 MEQ/L
  SODIUM: 143.1 MEQ/L
  TOTAL BILIRUBIN: 0.2 mg/dL
  TOTAL PROTEIN: 6.03 G/DL
  URIC ACID: 0.83 mg/dL
[3]
  ABSOLUTE BASOPHIL: 0 CELLS/uL
  ABSOLUTE EOSINOPHIL: 26.33 CELLS/uL
  ABSOLUTE LYMPHOCYTE: 8117.33 CELLS/uL
  ABSOLUTE MONOCYTE: 169.67 CELLS/uL
  ABSOLUTE SEGMENTED NEUTROPHIL: 1053.33 CELLS/uL
  BASOPHIL: 0%
  EOSINOPHIL: 0.33%
  ERYTHROCYTE COUNT: 5.39 x10E6/uL
  HEMATOCRIT: 33.9%
  HEMOGLOBIN: 13 G/DL
  LEUKOCYTE COUNT: 9.37 x10E3/uL
  LYMPHOCYTE: 87%
  MEAN CORPUSCULAR HEMOGLOBIN: 24.13 pg
  MEAN CORPUSCULAR HEMOGLOBIN CONCENTRATION: 38.37 G/DL
  MEAN CORPUSCULAR VOLUME: 62.93 fL
  MONOCYTE: 1.67%
  NEUTROPHIL: 11%
  NUCLEATED RED BLOOD CELLS: 0.33 /100WBC
  PLATELET COUNT: 1139.67 x10E3/uL
  ALANINE AMINOTRANSFERASE: 52.33 u/L
  ALBUMIN: 3.97 G/DL
  ALKALINE PHOSPHATASE: 386 u/L
  ASPARTATE AMINOTRANSFERASE: 89.67 u/L
  BLOOD UREA NITROGEN: 15.33 mg/dL
  CARBON DIOXIDE: 32.33 mmol/L
  CHLORIDE: 102.33 MEQ/L
  CHOLESTEROL: 79.33 mg/dL
  CREATINE PHOSPHOKINASE: 258 u/L
  CREATININE: 0.16 mg/dL
  GLUCOSE: 148.67 mg/dL
  LACTATE DEHYDROGENASE: 117.33 u/L
  LIPASE: 9.33 u/L
  PHOSPHORUS: 11.17 mg/dL
  POTASSIUM: 6.13 MEQ/L
  SODIUM: 148.3 MEQ/L
  TOTAL BILIRUBIN: 0.2 mg/dL
  TOTAL PROTEIN: 5.87 G/DL
  URIC ACID: 0.43 mg/dL

Reference: ChEMBL document CHEMBL3885881, “DrugMatrix”
